Among the data in US20070185132A1, “Cyclopropyl group substituted oxazolidinone antibiotics and derivatives thereo” (priority 2003, published 2007) are MIC values, retold here.

SMILES strings stand for the structures. Values after ≈ are worked out from the molar mass of the structure shown.

Usually MIC stands for the least concentration at which growth counts as inhibited. The low end stands for inhibition by little substance, the high end for a need for much substance.

What all share (type): cell-based
In experiment [1] the test system is Streptococcus pneumoniae PRQR (penicillin resistant, quinolone resistant). In words: MIC, agar dilution method, S. pneumoniae PRQR. As to conditions: Mueller-Hinton agar with 5% defibrinated horse blood, 35° C., 5% CO2, 24 hours. The method, then:
(§1) The following in vitro results were obtained based on an agar dilution method except for C. pneumoniae. The activity is presented as the minimum inhibitory concentration (MIC).
(§2) Streptococci and enterococci were tested on Mueller-Hinton agar supplemented with 5% defibrinated horse blood, using an approximate inoculum of 1×10^4 cfu/spot an incubation temperature of 35° C. in an atmosphere of 5% CO2 for 24 hours. The MIC was defined as the lowest concentration at which no visible bacterial growth was observed.
For orientation: In agar dilution, organisms are placed on agar that contains the substance at set levels.

For experiment [2], the system named is Staphylococcus aureus CR (chloramphenicol resistant). The experiment is described as follows: MIC, agar dilution method, S. aureus CR. As to conditions: Mueller-Hinton agar, 35° C., 24 hours. The method, then:
as §1
(§3) S. aureus and M. catarrhalis were tested on Mueller-Hinton agar, using an approximate inoculum of 1×10^4 cfu/spot an incubation temperature of 35° C. for 24 hours. The MIC was defined as the lowest concentration at which no visible bacterial growth was observed.

Experiment [3] deals with Streptococcus pneumoniae IID553. The experiment is described as follows: MIC, agar dilution method, S. pneumoniae IID553. As to conditions: Mueller-Hinton agar with 5% defibrinated horse blood, 35° C., 5% CO2, 24 hours. As to the method:
as §1, §2

The test system of experiment [4] is Streptococcus pyogenes IID692. In words: MIC, agar dilution method, S. pyogenes IID692. Conditions: Mueller-Hinton agar with 5% defibrinated horse blood, 35° C., 5% CO2, 24 hours. The method, then: as §1, §2
The subject of experiment [5] is Staphylococcus aureus Smith. The experiment is described as follows: MIC, agar dilution method, S. aureus Smith. Conditions: Mueller-Hinton agar, 35° C., 24 hours. The method, then: as §1, §3
For experiment [6], the system named is Moraxella catarrhalis ATCC25238. The experiment is described as follows: MIC, agar dilution method, M. catarrhalis ATCC25238. Conditions: Mueller-Hinton agar, 35° C., 24 hours. As to the method: as §1, §3
Experiment [7] relates to Enterococcus faecium VRQR (vancomycin resistant, quinolone resistant). The experiment is described as follows: MIC, agar dilution method, E. faecium VRQR. Conditions: Mueller-Hinton agar with 5% defibrinated horse blood, 35° C., 5% CO2, 24 hours. The method, then: as §1, §2
Experiment [8] has as its system Staphylococcus aureus MR (methicillin resistant). In words: MIC, agar dilution method, S. aureus MR. Conditions: Mueller-Hinton agar, 35° C., 24 hours. The method, then: as §1, §3

Regarding `CC(=O)NC[C@H]1CN(c2ccc(-c3ccc(C4(C#N)CC4)nc3)c(F)c2)C(=O)O1` [Example 3, N-[5(S)-3-[4-[2-(1-Cyanocyclopropan-1-yl)pyridin-5-yl]-3-fluorophenyl]-2-oxooxazolidin-5-ylmethyl]acetamide], the minimal inhibitory concentration (MIC) in experiment [1] worked out at 0.125 µg/mL (≈ 0.317 µM); in experiment [2], 0.5 µg/mL (≈ 1.27 µM); in experiment [3], 0.125 µg/mL (≈ 0.317 µM); in experiment [4], 0.125 µg/mL (≈ 0.317 µM); in experiment [5] it was 0.06 µg/mL (≈ 0.152 µM); in experiment [6], 0.5 µg/mL (≈ 1.27 µM). The MIC in experiment [7] and in experiment [8] was 0.125 µg/mL (≈ 0.317 µM) each time.
For `CC(=O)NC[C@H]1CN(c2ccc(-c3ccc(C4(N)CC4)nc3)cc2)C(=O)O1` [Example 5, N-[5(S)-3-[4-[2-(1-Aminocyclopropan-1-yl)pyridin-5-yl]phenyl]-2-oxooxazolidin-5-ylmethyl]acetamide], the minimum inhibitory concentration (MIC) in experiment [1] came out at 0.25 µg/mL (≈ 0.682 µM); in experiment [2], 2 µg/mL (≈ 5.46 µM); in experiment [3], 0.5 µg/mL (≈ 1.36 µM); in experiment [4] it was 0.25 µg/mL (≈ 0.682 µM); in experiment [5], 0.25 µg/mL (≈ 0.682 µM); in experiment [6] it was 2 µg/mL (≈ 5.46 µM). The minimal inhibitory concentration (MIC) in experiment [7] and in experiment [8] was 0.5 µg/mL (≈ 1.36 µM) in each case.
On to `N#CC1(c2ccc(-c3ccc(N4C[C@H](Cn5ccnn5)OC4=O)cc3)cn2)CC1` [Example 18, 1-[5(R)-3-[4-[2-(1-Cyanocyclopropan-1-yl)pyridin-5-yl]phenyl]-2-oxooxazolidin-5-ylmethyl]-1,2,3-triazole], for which the minimal inhibitory concentration (MIC) came to 0.125 µg/mL (≈ 0.323 µM) in experiment [1]; 1 µg/mL (≈ 2.59 µM) in experiment [2]; 0.125 µg/mL (≈ 0.323 µM) in experiment [3]; 0.06 µg/mL (≈ 0.155 µM) in experiment [4]; 0.06 µg/mL (≈ 0.155 µM) in experiment [5]; 0.5 µg/mL (≈ 1.29 µM) in experiment [6]. Further, the minimum inhibitory concentration (MIC) amounted to 0.125 µg/mL (≈ 0.323 µM) in experiment [7] and 0.06 µg/mL (≈ 0.155 µM) in experiment [8].
`N[C@@H]1[C@H]2CN(c3ccc(-c4ccc(N5C[C@H](Cn6ccnn6)OC5=O)cc4F)cn3)C[C@@H]12` [Example 32, 1-[5(R)-3-[4-[2-[(1α,5α,6α)-6-amino-3-azabicyclo[3.1.0]hexan-3-yl]pyridin-5-yl]-3-fluorophenyl]-2-oxooxazolidin-5-ylmethyl]-1,2,3-triazole]: the minimum inhibitory concentration (MIC) in experiment [1] is 0.125 µg/mL (≈ 0.287 µM); in experiment [2], 1 µg/mL (≈ 2.3 µM); in experiment [3], 0.25 µg/mL (≈ 0.574 µM); in experiment [4] it was 0.125 µg/mL (≈ 0.287 µM); in experiment [5], 0.125 µg/mL (≈ 0.287 µM); in experiment [6], 2 µg/mL (≈ 4.59 µM). For the same compound, the minimum inhibitory concentration (MIC) was 0.5 µg/mL (≈ 1.15 µM) in experiment [7] and 0.125 µg/mL (≈ 0.287 µM) in experiment [8].
`CC(=O)NC[C@H]1CN(c2ccc(N3CCOCC3)c(F)c2)C(=O)O1` [Linezolid, reference compound]: the MIC came to 1 µg/mL (≈ 2.96 µM) in experiment [1]; 16 µg/mL (≈ 47.4 µM) in experiment [2]; 2 µg/mL (≈ 5.93 µM) in experiment [3]; 1 µg/mL (≈ 2.96 µM) in experiment [4]; 1 µg/mL (≈ 2.96 µM) in experiment [5]; 4 µg/mL (≈ 11.9 µM) in experiment [6]. Besides, the results for the minimal inhibitory concentration (MIC) in experiment [7] and in experiment [8] were 2 µg/mL (≈ 5.93 µM) and 1 µg/mL (≈ 2.96 µM), respectively.
